Source: US5324648A, “Substituted isocoumarins as serine protease inhibitors and anti-inflammatory agents” (Georgia Tech Research Corporation, priority 1992, dated 1994)

Legend:
[1] = molecular target: rat granule tryptase; assay: Inhibition of rat granule tryptase; format: biochemical; conditions: Table XIV; [I] 0.2 mM
Method: (§1) ^a Inhibition was measured at 0.1M Hepes, 0.5M NaCl, pH 7.5 buffer,
(§2) 10% Me2 SO and 25° C. Suc--Phe--Leu--PheSBzl (0.14 mM) and
(§3) ZGly--ArgSBzl (0.06 mM) were used to measure chymase and tryptase activit

[2] = system: rat granule chymase; assay: Reactivation of inhibited rat granule chymase; format: biochemical; conditions: [I] 39 μM; +NH2OH 0.36M
Method: (§4) ^a Inhibition was performed at 0.1M Hepes, 0.5M NaCl, pH 7.5 buffer,
(§5) 10% Me2 SO and 25° C. Reactivation was carried out in the
presence of 0.36M of NH2 OH, and occurred immediately after the […]

[3] = molecular target: T1, chymotrypsin (Bos taurus, UniProt P00766); assay: Reactivation of inhibited chymotrypsin; format: biochemical, bovine
Method: as §4, §5
presence of 0.36M of NH2 OH, and occurred immediately after the
^b Enzyme activity was measured after two days.

[4] = system: rat granule chymase; assay: Inhibition of rat granule chymase; format: biochemical; conditions: Table XIV; [I] 0.2 mM; not time dependent
Method: as §1, §2, §3

[5] = molecular target: T2, bovine thrombin (Bos taurus, UniProt P00735); assay: Inactivation rate of bovine thrombin; format: biochemical; conditions: Table VIII; pH 7.5, 25° C; [I] 1.2-54 μM; read-out: kobs/[I]
T2 construct: bovine thrombin
How it was run: (§6)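 Incubation method: isocoumarin inhibitor in Me2SO added to enzyme (0.01-2.3 μM) in 0.1M Hepes, 0.01M CaCl2, pH 7.5, 8-12% Me2SO, 25° C; aliquots withdrawn over time for residual activity against peptide thioester or 4-nitroanilide substrates. kobs from ln(vt/vo) vs time.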

[6] = molecular target: human skin tryptase; assay: Inhibition of human skin tryptase; format: biochemical; conditions: Table IX; for kobs/[I]: pH 7.5, 25° C, [I] 0.34-0.39 μM
Method: (§7) Inactivation rates of serine proteases by substituted isocoumarins were measured by the incubation method. An aliquot of inhibitor (25 or 50 μl) in Me2 SO was added to a buffered enzyme solution (0.01-2.3 μM) to initiate the inactivation. Aliquots (50 μl) were withdrawn at various intervals and the residual enzymatic activity was measured. Me2 SO concentration in the reaction mixture was 8-12% (v/v). 0.1 Hepes, 0.01M CaCl2, pH 7.5 buffer was utilized for trypsin and coagulation enzymes. 0.1M Hepes, 0.5M NaCl, pH 7.5 was utilized for other serine proteases. The inhibitor concentrations are shown in all the tables. Peptide thioesters or peptide nitroanilides with appropriate sequence were used as substrates for various serine proteases. All peptide thioester hydrolysis rates were measured with assay mixtures containing 4,4'-dithiodipyridine (ε324 =19800M^-1 cm^-1; Grasetti & Murray, Arch. Biochem. Biophys. 119, pp 41-49 (1967)). Peptide 4-nitroanilide nitroanilide hydrolysis was measured at 410 nm (ε410 =8800M^-1 cm^-1; Erlanger et al., Arch. Biochem. Biophys. 95, pp 271-278 (1961)). First order inactivation rate constant (kobs) were obtained from plots of ln (vt /vo) vs time, and the correlation coefficients were greater than 0.98.
(§8) ^a Inhibition rates were measured in 0.1M Hepes, 0.01M CaCl2, pH
7.5 buffer for human plasmin; 25 mM Phosphate, 0.5M NaCl, 1 mM EDTA, pH
7.5 buffer for rat skin tryptase and 0.1M Hepes, 0.5M NaCl, pH 7.5 for
human lung tryptase, human skin tryptase and rt-PA. All enzymes were
assayed with ZArg-SBzl (0.07 mM) in the presence of 4,4dithiodipyridine
(0.33 mM). Reaction mixtures contained 8% Me2 SO and assays were […]

[7] = molecular target: T3, human thrombin (Homo sapiens, UniProt P00734); assay: Inactivation rate of human thrombin; format: biochemical; conditions: Table VIII; pH 7.5, 25° C; [I] 1.2-54 μM; read-out: kobs/[I]
T3 construct: human thrombin
How it was run: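 Incubation method: enzyme (0.01-2.3 μM) mixed with inhibitor in 0.1M Hepes, 0.01M CaCl2, pH 7.5, 8% Me2SO, 25° C; residual activity sampled over time with peptide thioester or 4-nitroanilide substrates. kobs from ln(vt/vo) vs time plots.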

[8] = molecular target: T4, rat skin tryptase (Rattus norvegicus, UniProt P27435); assay: Inactivation rate of rat skin tryptase; format: biochemical; conditions: pH 7.5, Table IX; pH 7.5, 25° C; [I] 0.42-0.51 μM; read-out: kobs/[I]
T4 construct: from tissue; host or cells: rat skin
How it was run: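 Rat skin tryptase incubated with isocoumarin inhibitor in 25 mM phosphate, 0.5 M NaCl, 1 mM EDTA, pH 7.5, 8-9% Me2SO, 25 °C; aliquots withdrawn over time for residual activity on ZArg-SBzl (0.07 mM) with 4,4'-dithiodipyridine (0.33 mM). First-order kobs from ln(vt/vo) versus time.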

[9] = molecular target: T5, human factor Xa (Homo sapiens, UniProt P00742); assay: Inactivation rate of human factor Xa; format: biochemical; conditions: Table VIII; pH 7.5, 25° C; [I] 3.6-44 μM; read-out: kobs/[I]
T5 construct: human factor Xa
How it was run: as §6

[10] = molecular target: human lung tryptase; assay: Inactivation rate of human lung tryptase; format: biochemical; conditions: Table IX; pH 7.5, 25° C; [I] 0.42-0.47 μM
How it was run: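 Incubation method in 0.1M Hepes, 0.5M NaCl, pH 7.5, 8% Me2SO, 25° C; inhibitor added to enzyme, aliquots withdrawn over time for residual activity. Substrate ZArg-SBzl (0.07 mM) with 4,4'-dithiodipyridine (0.33 mM). kobs from ln(vt/vo) vs time plots.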

[11] = molecular target: recombinant human tissue plasminogen activator (Homo sapiens, UniProt P00750); assay: Inactivation rate of recombinant human tissue plasminogen activator; format: biochemical; conditions: pH 7.5, Table IX; pH 7.5, 25° C; [I] 3.5-5.0 μM; read-out: kobs/[I]
How it was run: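 Incubation method: enzyme mixed with inhibitor in Me2SO (8–12% v/v) in 0.1M Hepes, 0.5M NaCl, pH 7.5; aliquots withdrawn over time for residual activity with ZArg-SBzl (0.07 mM) plus 4,4'-dithiodipyridine (0.33 mM). kobs taken from ln(vt/vo) versus time plots.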

[12] = molecular target: T6, human factor XIIa (Homo sapiens, UniProt P00748); assay: Inactivation rate of human factor XIIa; format: biochemical; conditions: Table VIII; pH 7.5, 25° C; [I] 3.6-4.9 μM; read-out: kobs/[I]
T6 construct: human factor XIIa
T6 sequence (P00748 373-615 limits assumed): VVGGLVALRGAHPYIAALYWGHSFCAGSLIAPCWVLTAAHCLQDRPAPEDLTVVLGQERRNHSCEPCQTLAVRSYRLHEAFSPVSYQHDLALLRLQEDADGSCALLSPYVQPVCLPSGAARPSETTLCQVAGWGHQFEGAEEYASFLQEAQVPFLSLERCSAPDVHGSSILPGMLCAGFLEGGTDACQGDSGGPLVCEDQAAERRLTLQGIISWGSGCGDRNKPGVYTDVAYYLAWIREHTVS
T6 sequence (P00748 20-372 partner limits assumed): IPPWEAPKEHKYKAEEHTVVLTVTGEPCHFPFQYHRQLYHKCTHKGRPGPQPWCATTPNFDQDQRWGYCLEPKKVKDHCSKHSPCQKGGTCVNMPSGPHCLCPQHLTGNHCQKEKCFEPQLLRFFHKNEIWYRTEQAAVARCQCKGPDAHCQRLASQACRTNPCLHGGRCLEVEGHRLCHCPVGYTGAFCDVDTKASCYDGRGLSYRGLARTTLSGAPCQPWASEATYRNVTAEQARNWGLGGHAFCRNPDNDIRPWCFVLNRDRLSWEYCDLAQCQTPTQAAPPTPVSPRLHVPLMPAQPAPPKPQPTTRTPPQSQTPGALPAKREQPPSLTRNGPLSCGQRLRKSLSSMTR
Method: as §7
^a Conditions were as 0.1M Hepes, 0.01M CaCl2, pH 7.5 and 8-12%
Me2 SO and 25° C. Rate constants were measured by incubation
method unless otherwise noted. An aliquot of inhibitor was added to an
enzyme solution and aliquots removed with time and assayed for remaining
enzymatic activity. Firstorder rate constants, kobs were obtained
from the plots of ln(vt /vo) versus time.
as §8
7.5 buffer, 8% Me2 SO and at 25° C.

[13] = molecular target: T1, chymotrypsin; assay: Inactivation of chymotrypsin; format: biochemical, bovine; conditions: Table X; pH 7.5, 25° C; [I] 0.9-43 μM; read-out: kobs/[I]
[14] = molecular target: T7, human leukocyte elastase (HLE) (Homo sapiens, UniProt P08246); assay: Inactivation of human leukocyte elastase (HLE); format: biochemical; conditions: Table X; pH 7.5, 25° C; [I] 2.1-42 μM; read-out: kobs/[I]
T7 construct: from tissue; host or cells: human leukocytes (from the name)
T7 sequence (P08246 30-267): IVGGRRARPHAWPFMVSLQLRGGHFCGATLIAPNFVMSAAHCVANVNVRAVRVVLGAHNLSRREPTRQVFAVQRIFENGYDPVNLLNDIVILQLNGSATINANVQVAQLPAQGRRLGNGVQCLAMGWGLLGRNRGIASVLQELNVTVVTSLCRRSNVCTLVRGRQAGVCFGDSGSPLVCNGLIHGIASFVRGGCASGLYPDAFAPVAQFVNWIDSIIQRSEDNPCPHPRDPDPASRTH
Method: (§9) Inactivation rates of serine proteases by substituted isocoumarins were measured by the incubation method. An aliquot of inhibitor (25 or 50 μl) in Me2 SO was added to a buffered enzyme solution (0.01-2.3 μM) to initiate the inactivation. Aliquots (50 μl) were withdrawn at various intervals and the residual enzymatic activity was measured. Me2 SO concentration in the reaction mixture was 8-12% (v/v). 0.1 Hepes, 0.01M CaCl2, pH 7.5 buffer was utilized for trypsin and coagulation enzymes. 0.1M Hepes, 0.5M NaCl, pH 7.5 was utilized for other serine proteases. […] Peptide thioesters or peptide nitroanilides with appropriate sequence were used as substrates for various serine proteases. All peptide thioester hydrolysis rates were measured with assay mixtures containing 4,4'-dithiodipyridine (ε324 =19800M^-1 cm^-1 ; Grasetti & Murray, Arch. Biochem. Biophys. 119, pp 41-49 (1967)). Peptide 4-nitroanilide nitroanilide hydrolysis was measured at 410 nm (ε410 =8800M^-1 cm^-1 ; Erlanger et al., Arch. Biochem. Biophys. 95, pp 271-278 (1961)). First order inactivation rate constant (kobs) were obtained from plots of ln (vt /vo) vs time, and the correlation coefficients were greater than 0.98.
(§10) ^a Inactivation rates were measured at 0.1M Hepes, 0.5 NaCl, pH 7.5,
(§11) 8-12% Me2 SO and 25° C. by incubation method.
(§12) ^a Inhibition rates were measured in 0.1M Hepes, 0.05M NaCl, pH 7.5
buffer, 8-9% Me2 SO and at 25° C.
(§13) ^a Inhibition constants were in 0.1M Hepes, 0.5M NaCl, pH 7.5 buffer,
8-9% Me2 SO and at 25° C.
(§14) ^a Inhibition rates were measured in 0.1M Hepes, 0.5M NaCl, 2.5%
Me2 SO, pH 7,5 and at 25° C.
(§15) ^a Inhibition was measured in 0.1M Hepes, 0.5M NaCl, pH 7.5 buffer,
(§16) 5-10% Me2 SO and at 25° C. Suc--Val--Pro--Phe--NA (0.48 mM)
(§17) was used as the substrate for chymotrypsin and cat G.
(§18) ^a Inhibition rates were measured in 0.1M Hepes, 0.5M NaCl, pH 7.5

[15] = molecular target: T8, human plasmin (Homo sapiens, UniProt P00747); assay: Inactivation rate of human plasmin; format: biochemical; conditions: Table IX; 0.01M CaCl2, pH 7.5, 25° C; [I] 8.3-41 μM; read-out: kobs/[I]
T8 construct: human plasmin; from tissue; host or cells: human plasma

[16] = molecular target: T9, cathepsin G (Homo sapiens, UniProt P08311); assay: Inactivation of cathepsin G; format: biochemical; conditions: Table X; pH 7.5, 25° C; [I] 33-46 μM; read-out: kobs/[I]
T9 construct: from tissue; host or cells: human leukocytes
T9 sequence (P08311 21-255): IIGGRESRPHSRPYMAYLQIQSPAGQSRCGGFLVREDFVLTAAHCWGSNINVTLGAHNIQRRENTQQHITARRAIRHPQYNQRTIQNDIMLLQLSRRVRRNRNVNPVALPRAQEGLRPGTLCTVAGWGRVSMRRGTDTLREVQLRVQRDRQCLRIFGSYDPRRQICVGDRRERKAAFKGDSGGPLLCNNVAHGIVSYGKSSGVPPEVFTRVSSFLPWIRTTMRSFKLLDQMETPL

[17] = Spontaneous hydrolysis in Hepes buffer; format: physicochemical; conditions: 0.1 Hepes, 0.5M NaCl, pH 7.5, 9% Me2SO, 25° C
Method: ^a Conditions were 0.1 Hepes, 0.5M NaCl, pH 7.5 and 9% Me2 SO at
25° C. Spontaneous hydrolysis rates were measured
spectrophotometrically by monitoring the decrease in absorbance due to th
isocoumarin ring system (wavelength 335-380 nm) using the firstorder rate

[18] = molecular target: T10, porcine pancreatic elastase (PPE) (Sus scrofa, UniProt P00772); assay: Inactivation of porcine pancreatic elastase (PPE); format: biochemical; conditions: Table X; after 20 min incubation
T10 construct: from tissue; host or cells: porcine pancreas (from the name)
Method: as §9, §10, §11, §12
buffer, 8-9% Me2 SO and at 25° C.
as §13
8-9% Me2 SO and at 25° C.
as §14
Me2 SO, pH 7,5 and at 25° C.
as §15, §16, §17, §18

[19] = molecular target: T11, bovine trypsin (Bos taurus, UniProt P00760); assay: Inactivation rate of bovine trypsin; format: biochemical; conditions: Table VIII; pH 7.5, 25° C; [I] 1.1-4.6 μM; read-out: kobs/[I]
T11 sequence (P00760 24-246): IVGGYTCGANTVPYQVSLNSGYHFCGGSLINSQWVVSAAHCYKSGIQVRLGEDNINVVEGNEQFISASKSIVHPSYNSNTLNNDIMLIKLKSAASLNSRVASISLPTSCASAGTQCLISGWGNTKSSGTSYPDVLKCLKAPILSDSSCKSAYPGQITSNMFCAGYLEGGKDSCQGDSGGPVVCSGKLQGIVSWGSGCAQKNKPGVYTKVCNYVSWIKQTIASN
How it was run: as §6

recombinant human tissue plasminogen activator, sequence (P00750 36-562): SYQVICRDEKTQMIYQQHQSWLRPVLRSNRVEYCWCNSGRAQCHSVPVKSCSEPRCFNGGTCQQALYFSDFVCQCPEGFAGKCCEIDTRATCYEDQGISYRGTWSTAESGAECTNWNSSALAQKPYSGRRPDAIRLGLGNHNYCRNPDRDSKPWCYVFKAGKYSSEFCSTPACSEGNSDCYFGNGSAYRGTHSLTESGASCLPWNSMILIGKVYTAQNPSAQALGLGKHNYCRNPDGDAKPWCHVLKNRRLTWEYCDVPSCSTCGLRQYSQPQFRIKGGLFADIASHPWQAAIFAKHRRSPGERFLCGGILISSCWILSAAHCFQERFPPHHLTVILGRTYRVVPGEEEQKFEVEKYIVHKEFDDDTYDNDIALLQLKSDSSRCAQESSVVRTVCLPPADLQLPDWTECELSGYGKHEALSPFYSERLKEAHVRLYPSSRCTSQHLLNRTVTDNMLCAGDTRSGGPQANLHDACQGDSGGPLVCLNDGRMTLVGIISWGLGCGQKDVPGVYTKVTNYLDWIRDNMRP
T4 sequence (P27435 29-273): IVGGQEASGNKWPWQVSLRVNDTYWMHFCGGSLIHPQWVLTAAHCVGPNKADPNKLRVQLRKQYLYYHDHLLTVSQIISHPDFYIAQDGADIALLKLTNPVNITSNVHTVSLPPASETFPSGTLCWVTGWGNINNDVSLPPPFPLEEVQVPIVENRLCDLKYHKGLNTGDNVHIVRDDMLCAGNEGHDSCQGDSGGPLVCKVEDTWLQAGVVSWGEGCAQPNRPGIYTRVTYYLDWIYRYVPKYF
T5 sequence (P00742 235-488 limits assumed): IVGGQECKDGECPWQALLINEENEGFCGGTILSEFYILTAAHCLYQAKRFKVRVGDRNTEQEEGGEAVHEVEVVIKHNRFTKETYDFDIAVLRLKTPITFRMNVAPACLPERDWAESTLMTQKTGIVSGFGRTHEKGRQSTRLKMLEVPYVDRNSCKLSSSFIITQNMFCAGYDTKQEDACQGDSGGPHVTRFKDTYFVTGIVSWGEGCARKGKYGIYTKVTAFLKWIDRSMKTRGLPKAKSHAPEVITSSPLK
T5 sequence (P00742 41-179 partner limits assumed): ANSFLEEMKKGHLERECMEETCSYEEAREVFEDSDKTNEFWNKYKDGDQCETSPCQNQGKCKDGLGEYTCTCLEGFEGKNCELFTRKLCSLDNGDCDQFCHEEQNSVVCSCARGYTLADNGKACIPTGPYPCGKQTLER
T10 sequence (P00772 27-266): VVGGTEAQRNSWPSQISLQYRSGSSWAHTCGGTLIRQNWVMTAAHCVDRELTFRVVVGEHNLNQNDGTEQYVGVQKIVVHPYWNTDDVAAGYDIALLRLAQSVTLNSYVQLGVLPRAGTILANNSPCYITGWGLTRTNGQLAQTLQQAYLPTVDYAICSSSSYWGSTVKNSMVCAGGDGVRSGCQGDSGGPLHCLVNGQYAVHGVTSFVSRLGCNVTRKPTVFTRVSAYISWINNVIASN
T8 sequence (P00747 581-810 limits assumed): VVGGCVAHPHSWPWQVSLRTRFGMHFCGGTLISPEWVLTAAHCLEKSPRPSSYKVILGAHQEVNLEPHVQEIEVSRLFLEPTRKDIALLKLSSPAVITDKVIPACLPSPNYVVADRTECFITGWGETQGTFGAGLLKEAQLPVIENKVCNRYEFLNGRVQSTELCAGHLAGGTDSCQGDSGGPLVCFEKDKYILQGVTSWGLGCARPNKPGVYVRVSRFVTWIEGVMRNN
T8 sequence (P00747 97-580 partner limits assumed): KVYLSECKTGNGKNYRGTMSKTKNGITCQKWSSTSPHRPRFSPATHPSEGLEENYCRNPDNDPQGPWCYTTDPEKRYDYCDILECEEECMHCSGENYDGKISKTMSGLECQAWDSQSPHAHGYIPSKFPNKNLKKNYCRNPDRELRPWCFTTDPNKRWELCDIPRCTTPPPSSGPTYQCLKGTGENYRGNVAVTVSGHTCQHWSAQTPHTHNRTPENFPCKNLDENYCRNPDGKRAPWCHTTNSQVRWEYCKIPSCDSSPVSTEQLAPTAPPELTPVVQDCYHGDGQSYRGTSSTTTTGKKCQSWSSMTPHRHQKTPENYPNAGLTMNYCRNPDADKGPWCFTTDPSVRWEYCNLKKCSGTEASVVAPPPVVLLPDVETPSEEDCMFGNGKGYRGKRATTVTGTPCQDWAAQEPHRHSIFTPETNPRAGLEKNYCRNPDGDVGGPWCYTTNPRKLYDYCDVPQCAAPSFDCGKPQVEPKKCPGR

Row | kinact/KI [5] [M⁻¹ s⁻¹] | kobs/[I] [6] | kinact/KI [7] [M⁻¹ s⁻¹] | kinact/KI [8] [M⁻¹ s⁻¹] | kinact/KI [9] [M⁻¹ s⁻¹] | kobs/[I] [10] | kinact/KI [11] [M⁻¹ s⁻¹] | kinact/KI [12] [M⁻¹ s⁻¹] | t1/2 for spontaneous hydrolysis [17] [h] | kinact/KI [19] [M⁻¹ s⁻¹] | SMILES | also measured
1 |  |  |  |  |  |  |  |  |  |  | O=C(CCCC[C@@H]1SC[C@@H]2NC(=O)N[C@@H]21)Nc1ccc2c(Cl)c(OCCc3ccccc3)oc(=O)c2c1 [7-biotinylamino-4-chloro-3-(2-phenylethoxy)isocoumarin] | kobs/[I] [1]: 2 to 3 M⁻¹ s⁻¹; % of Enzyme Activity Reactivated [2]: 100%; % of Enzyme Activity Reactivated ([3]; [I] 39 μM, +NH2OH 0.36M): 85%; % of Enzyme Activity Reactivated ([3]; [I] 39 μM, in buffer, after two days): 51%; % of Enzyme Activity Reactivated ([3]; [I] 78 μM, +NH2OH 0.36M): 79%; % of Enzyme Activity Reactivated ([3]; [I] 78 μM, in buffer, after two days): 7%; % of inhibition [4]: 10-20%
2 | 4240 | 62,000 M^-1 s^-1 | 3070 | 360000 | 3070 | 60,000 M^-1 s^-1 | 15000 | 82000 |  |  | N=C(N)SCCOc1oc(=O)c2cc(NC(=O)[C@H](N)Cc3ccccc3)ccc2c1Cl [D-Phe--NH-CiTEtOIC, 7-(D-phenylalanylamino)-4-chloro-3-(2-isothiureidoethoxy)isocoumarin] | 
3 | 420 |  | 700 | 270000 |  | 190,000 M^-1 s^-1 | 18000 |  | 2.47 | 51000 | N=C(N)SCCCOc1oc(=O)c2cc(NC(=O)NCc3ccccc3)ccc2c1Cl [PhCH2 NHCONH-CiTPrOIC, 7-(benzylcarbamoylamino)-4-chloro-3-(3-isothiureidopropoxy)isocoumarin] | kinact/KI [13]: 13400 M⁻¹ s⁻¹; percentage of inhibition ([6]; not time dependent, at 0.34-5.0 μM): 68%; kinact/KI [14]: 250 M⁻¹ s⁻¹; kinact/KI [15]: 5120 M⁻¹ s⁻¹; kinact/KI [16]: 50 M⁻¹ s⁻¹; percentage of inhibition [18]: 9%
4 | 970 | 38,000 M^-1 s^-1 | 1840 | 250000 | 50 | 140,000 M^-1 s^-1 | 19000 | 7720 | 2.47 | 63000 | N=C(N)SCCCOc1oc(=O)c2cc(NC(=O)Nc3ccccc3)ccc2c1Cl [PhNHCONH-CiTPrOIC, 7-(phenylcarbamoylamino)-4-chloro-3-(3-isothiureidopropoxy)isocoumarin] | 
